Results: patent US9746480B2, “Human myeloid derived suppressor cell cancer markers” (University of Southern California, priority 2011, dated 2017)
Entries after “also recorded” stand apart in the source; their conditions may differ.

Experiments:
CD33^+ MDSC [1] = assay: qRT-PCR gene expression in treated CD33+ MDSC; type: cell-based, human; details: treated vs untreated CD33+ MDSC, mRNA
CD11b^+ MDSC [2] = assay: qRT-PCR gene expression in treated CD11b+ MDSC; type: cell-based, human; details: treated vs untreated CD11b+ MDSC, mRNA
CD33^+ MDSC [3] = assay: Reversal of suppressive function of tumor cell line-induced CD33+ MDSC by drugs; type: cell-based, human; details: drug-treated CD33+ MDSC
CD11b^+ MDSC [4] = assay: Functional inhibition of tumor cell line-induced CD11b+ MDSC by drugs; details: drug-treated CD11b+ MDSC
CD33^+ MDSC [5] = assay: Suppression Assay in presence or absence of specific inhibitors of MDSC suppressive mechanisms; type: cell-based, human; details: tumor cell line-induced CD33+ MDSC, CD3/CD28-stimulated autologous T cells, with inhibitor
Description: Further characterization of tumor-induced canonical CD33^+ MDSC subset by analysis of the expression of putative MDSC suppression genes was performed. For these studies, expression of putative suppression genes was measured in tumor cell line-induced MDSC, including those induced by SCCL-MT1 HNSCC cell line and those induced by 4-998 osteogenic sarcoma, DU 145 prostate carcinoma, CAKI-1 renal cell carcinoma, SK-OV-3 ovarian carcinoma, and SW 608 and SW 732 colorectal adenocarcinoma cell lines (FIG. 6A), and compared to expression levels in normal, non-suppressive CD33^+ myeloid cells from medium only cultures. […] To determine the dominant mechanism of T cell suppression by this canonical CD33^+ MDSC subset, suppression assays were repeated in the presence or absence of specific inhibitors of ARG-1 (nor-NOHA), iNOS (L-NMMA), NOX2 (apocynin), VEGF (neutralizing antibody Avastin), or TGFβ1 (SB431542 or neutralizing antibody 1D11).

Compound | HIF1α expression (CD33^+ MDSC [1]) | STAT3 expression (CD33^+ MDSC [1]) | C/EBPβ expression (CD11b^+ MDSC [2]) | HIF1α expression (CD11b^+ MDSC [2]) | STAT3 expression (CD11b^+ MDSC [2]) | CD33+ MDSC suppressive function (CD33^+ MDSC [3]) | CD11b+ MDSC suppressive function (CD11b^+ MDSC [4]) | suppression of T cell proliferation by CD33+ MDSC (CD33^+ MDSC [5]) | ARG-1 expression (CD33^+ MDSC [1]) | C/EBPβ expression (CD33^+ MDSC [1]) | NOX2-component NCF1 expression (CD33^+ MDSC [1]) | iNOS expression (CD33^+ MDSC [1]) | ARG-1 expression (CD11b^+ MDSC [2]) | NOX2-component NCF1 expression (CD11b^+ MDSC [2]) | iNOS expression (CD11b^+ MDSC [2])
CC1=C(/C=C/C(C)=C/C=C/C(C)=C/C(=O)O)C(C)(C)CCC1 [ATRA] | decreased | decreased | decreased | no change | no change | Inhibition; also recorded: Reversal | Functional inhibition |  |  |  |  |  |  |  | 
COc1cc(C(C)=O)ccc1O [apocynin] |  |  |  |  |  |  |  | statistically significant decreases in suppression |  |  |  |  |  |  | 
N=C(NO)NCC[C@H](N)C(=O)O [nor-NOHA] |  |  |  |  |  |  |  | statistically significant decreases in suppression |  |  |  |  |  |  | 
lipopolysaccharide | further up-regulation | further up-regulation | further up-regulation | further up-regulation | further up-regulation |  |  |  | increased expression | further up-regulation | increased expression | increased expression | increased expression | increased expression | increased expression
